Laboratory results as given in patent publication US7326700B2, “Cyclohexenyl phenyl carboxamides tocolytic oxytocin receptor antagonists” (Wyeth, priority 2001, dated 2008).
Counter-ions that a name gives are not always drawn.

target: T1, human vasopressin V1a receptor subtype (Homo sapiens, UniProt P37288); assay: Vasopressin binding in CHO cell membranes expressing human vasopressin V1a subtype receptors ([3H]Manning ligand radioligand binding); conditions: 100 nM
T1 construct: host or cells: CHO cells, stably transfected (pZeoSV vector for the Thibonnier line)
Excerpt: Chinese hamster ovary cells (CHO cells) stably transfected with the human vasopressin V1a subtype receptors were either obtained from Biosignal Inc., 1744 rue Williams, Montreal, Quebec, Canada or obtained from M. Thibonnier, Case Western Reserve University School of Medicine, Cleveland, Ohio.
CHO cells transfected with the human vasopressin V1a subtype receptors obtained from M. Thibonnier (pZeoSV vector) are allowed to grow to confluency (approx. >90%) in T-150 flasks under sterile conditions, in a cell culture medium consisting of F-12 Nutrient Mixture (HAM) with L-glutamine (Gibco Cat. #11765-054) containing 15 mM HEPES (Gibco Cat. #15630-080), 1% antibiotic/antimycotic (add 5 mL 100×, Gibco Cat. #15240-062 per 500 mL F-12), 250 μg/mL Zeocin (add 1.25 mL of 100 mg/mL Invitrogen R-250-01 per 500 mL F-12) and 10% Fetal Bovine Serum (Qualified, heat inactivated, Gibco Cat. #16140-063). The medium is removed by aspiration and the cells are washed with 10 mL of Hank's Balanced Salt solution (Gibco Cat. #14175-095). The salt solution is removed by aspiration and the cells are trypsinized with 5 mL of trypsin-EDTA (0.05% trypsin, 0.53 mM EDTA-4Na, Gibco Cat. #25300-070) for 1 min. The trypsin is removed by aspiration and the cells dislodged by tapping. Cell Culture medium (eg, 30 mL for 1:30 split) is immediately added and mixed well to inactivate trypsin. 1 mL of detached cells is added to new culture flasks containing fresh cell culture medium (eg, into 25 mL per T-150 flask), and mixed gently. The cells are incubated at 37° C. in 5% CO2. The medium is changed at 3 to 4 days interval (or as appropriate). The cells grow to confluency (approx. >75%-95%) within 7-8 days. All steps are done under sterile conditions.
The cells are washed twice gently with Hank's Balanced Salt solution (e.g,. use 10 mL per T-150 flask). The excess is removed and the cells are bathed for 15-30 min. in an enzyme-free Cell Dissociation Buffer (e.g. use 8 mL Hank's Based, Gibco Cat. #13150-016 per T-150 flask) until the cells are loosened. The contents are transferred to centrifuge tubes (50 mL) kept in an ice bath. All subsequent steps are done at 4° C. The tubes are centrifuged at 300×g for 15 min (1380 rpm on SORVAL, Model RT6000D, using the rotor for 50 mL tubes). The supernatant is discarded and the cells suspended in homogeneizing buffer (10 mM Tris-HCl containing 0.25 M sucrose and 1 mM EDTA, pH 7.4) ensuring that the volume of the buffer is about ten times the volume of the cell pellet. The cells are pooled into a centrifuge tube (50 mL) and homogenized with Polytron at setting 6 for 10 sec. The homogenate is transferred into a Potter-Elvjehm homogenizer and homogenized with 3 strokes. The homogenate is centrifuged at 1500×g for 10 min at 4° C. (3100 rpm using SORVAL, model RT6000D, using the rotor for 50 mL tubes). The pellet is discarded. The supernatant is centrifuged at 100,000×g for 60 min. at 4° C. (Beckman L8-80M ultracentrifuge; spin at 37,500 rpm with rotor type 70 Ti for 50 mL tubes; 38,000 rpm with type 80Ti for 15 mL tubes; or 35,800 rpm with rotor type 45Ti). The supernantant is discarded and the pellet suspended in 3 to 4 mL of Tris buffer (50 mM TRIS-HCl, pH 7.4). The protein content is estimated by the Bradford or Lowry method. The volume of the membrane suspension is adjusted with the membrane buffer (50 mM Tris-HCl containing 0.1% BSA and 0.1 mM PMSF) to give 3.0 mg/mL (or as appropriate) of protein. The membranes are aliquoted and stored at −70° C.
In wells of a 96-well format microtiter plate, is added 90, 110 or 130 μL (to make up a final volume of 200 μL) of assay buffer containing 50 mM of Tris-HCl (pH 7.4), BSA (heat inactivated, protease-free), […], 1 mg % aprotinin, 1 mg % leupeptin, 2 mg % 1,10-phenanthroline, 10 mg % trypsin inhibitor, and 0.1 mM PMSF. The inhibitors are added on the day of the experiment. […]

T1 sequence (P37288 whole entry): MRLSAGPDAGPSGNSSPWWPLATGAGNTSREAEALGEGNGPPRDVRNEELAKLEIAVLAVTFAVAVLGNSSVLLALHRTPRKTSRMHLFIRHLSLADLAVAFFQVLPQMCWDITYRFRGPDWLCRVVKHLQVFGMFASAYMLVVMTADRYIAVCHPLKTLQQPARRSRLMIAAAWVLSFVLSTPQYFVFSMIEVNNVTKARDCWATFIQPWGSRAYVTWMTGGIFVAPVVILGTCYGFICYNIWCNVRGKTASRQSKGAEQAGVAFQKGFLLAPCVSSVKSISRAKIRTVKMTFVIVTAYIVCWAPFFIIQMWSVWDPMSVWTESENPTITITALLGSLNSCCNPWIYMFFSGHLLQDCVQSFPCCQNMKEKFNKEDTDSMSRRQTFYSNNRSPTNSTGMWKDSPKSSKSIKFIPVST

Row | SMILES | inhibition at 0.1 µM [%] | V1a % inhibition @ 100 nM [%]
1 | COc1cc(C2=CCCCC2)c(Cl)cc1C(=O)N1Cc2ccc(C(=O)N(C)CCCN(C)C)n2Cc2ccccc21 [Example 2, 10-(5-Chloro-4-cyclohex-1-en-1-yl-2-methoxybenzoyl)-N-[3-(dimethylamino)propyl]-N-methyl-10,11-dihydro-5H-pyrrolo[2,1-c][1,4]benzodiazepine-3-carboxamide] | 19 | –
2 | Cc1cc(C(=O)N2Cc3ccc(C(=O)N4CCN(C)CC4)n3Cc3ccccc32)ccc1C1=CCCCC1 [Example 4, [10-(4-Cyclohex-1-en-1-yl-3-methyl-benzoyl)-10,11-dihydro-5H-pyrrolo[2,1-c][1,4]benzodiazepin-3-yl]-(4-methyl-piperazin-1-yl)-methanone] | 26 | –
3 | Cc1cc(C(=O)N2Cc3ccc(C(=O)N4CCN(CCCN(C)C)CC4)n3Cc3ccccc32)ccc1C1=CCCCC1 [Example 5, [10-(4-Cyclohex-1-en-1-yl-3-methyl-benzoyl)-10,11-dihydro-5H-pyrrolo[2,1-c][1,4]benzodiazepin-3-yl]-[4-(3-dimethylamino-propyl)-piperazin-1-yl]-methanone] | 56 | –
4 | Cc1cc(C(=O)N2Cc3ccc(C(=O)N4CCN(C)CC4)n3Cc3ccccc32)ccc1C1=CCCc2ccccc21 [Example 6, {10-[4-(3,4-Dihydro-naphthalen-1-yl)-3-methyl-benzoyl]-10,11-dihydro-5H-benzo[e]pyrrolo[1,2-a][1,4]diazepin-3-yl}-(4-methyl-piperazin-1-yl)-methanone] | 4 | –
5 | Cc1cc(C(=O)N2Cc3ccc(C(=O)N4CCN(CCCN(C)C)CC4)n3Cc3ccccc32)ccc1C1=CCCc2ccccc21 [Example 7, {10-[4-(3,4-Dihydro-naphthalen-1-yl)-3-methyl-benzoyl]-10,11-dihydro-5H-pyrrolo[2,1-c][1,4]benzodiazepin-3-yl}-[4-(3-dimethylamino-propyl)-piperazin-1-yl]-methanone] | 7 | –
6 | CC1=C(c2ccc(C(=O)N3Cc4ccc(C(=O)N5CCN(C)CC5)n4Cc4ccccc43)cc2C)CCCC1O (stereo not drawn) [Example 10, [4-(3-Hydroxy-2-methyl-cyclohex-1-en-1-yl)-3-methyl-phenyl]-[3-(4-methyl-piperazine-1carbonyl)-10,11-dihydro-5H-pyrrolo[2,1-c][1,4]benzodiazepin-10-yl]-methanone] | 52 | –
7 | Cc1cc(C(=O)N2Cc3ccc(C(=O)N4CCCN(C)CC4)n3Cc3ccccc32)ccc1C1=CCCCC1 [Example 13, {10-[4-(1-Cyclohex-1-en-1-yl)-3-methylbenzoyl]-10,11-dihydro-5H-pyrrolo[2,1-c][1,4]benzodiazepin-3-yl}(4-methyl-1,4-diazepan-1-yl)methanone] | – | 34
8 | Cc1cc(C(=O)N2Cc3ccc(C(=O)NCCCN(C)C)n3Cc3ccccc32)ccc1C1=CCCCC1 [Example 14, 10-[4-(1-Cyclohex-1-en-1-yl)-3-methylbenzoyl]-N-[3-(dimethylamino)propyl]-10,11-dihydro-5H-pyrrolo[2,1-c][1,4]benzodiazepine-3-carboxamide] | – | 24
9 | Cc1cc(C(=O)N2Cc3ccc(C(=O)N(C)CCN(C)C)n3Cc3ccccc32)ccc1C1=CCCCC1 [Example 15, 10-[4-(1-Cyclohex-1-en-1-yl)-3-methylbenzoyl]-N-[2-(dimethylamino)ethyl]-N-methyl-10,11-dihydro-5H-pyrrolo[2,1-c][1,4]benzodiazepine-3-carboxamide] | – | 71
10 | Cc1cc(C(=O)N2Cc3ccc(C(=O)N(C)CCCN(C)C)n3Cc3ccccc32)ccc1C1=CCCCC1 [Example 16, 10-[4-(1-Cyclohex-1-en-1-yl)-3-methylbenzoyl]-N-[3-(dimethylamino)propyl]-N-methyl-10,11-dihydro-5H-pyrrolo[2,1-c][1 ,4]benzodiazepine-3-carboxamide] | – | 55
11 | Cc1cc(C(=O)N2Cc3ccc(C(=O)N4CCC(N5CCCCC5)CC4)n3Cc3ccccc32)ccc1C1=CCCCC1 [Example 17, {10-[4-(1-Cyclohex-1-en-1-yl)-3-methylbenzoyl]-10,11-dihydro-5H-pyrrolo[2,1-c][1,4]benzodiazepin-3-yl}[4-(1-piperidinyl)-1-piperidinyl]methanone] | – | 30
12 | Cc1cc(C(=O)N2Cc3ccc(C(=O)NCCCn4ccnc4)n3Cc3ccccc32)ccc1C1=CCCCC1 [Example 18, 10-[4-(1-Cyclohex-1-en-1-yl)-3-methylbenzoyl]-N-[3-(1H-imidazol-1-yl)propyl]10,11-dihydro-5H-pyrrolo[2,1-c][1,4]benzodiazepine-3-carboxamide] | – | 7
13 | Cc1cc(C(=O)N2Cc3ccc(C(=O)N4CCC(N5CCCC5)CC4)n3Cc3ccccc32)ccc1C1=CCCCC1 [Example 19, {10-[4-(1-Cyclohex-1-en-1-yl)-3-methylbenzoyl]-10,11-dihydro-5H-pyrrolo[2,1c][1,4]benzodiazepin-3-yl}[4-(1-pyrrolidinyl)-1-piperidinyl]methanone] | – | 33
14 | Cc1cc(C(=O)N2Cc3ccc(C(=O)NCCN4CCCCC4)n3Cc3ccccc32)ccc1C1=CCCCC1 [Example 20, 10-[4-(1-Cyclohex-1-en-1-yl)-3-methylbenzoyl]-N-[2-(1-piperidinyl)ethyl]-10,11-dihydro-5H-pyrrolo[2,1-c][1,4]benzodiazepine-3-carboxamide] | – | 23
15 | Cc1cc(C(=O)N2Cc3ccc(C(=O)NCCC4CCCN4C)n3Cc3ccccc32)ccc1C1=CCCCC1 (stereo not drawn) [Example 21, 10-[4-(1-Cyclohex-1-en-1-yl)-3-methylbenzoyl]-N-[2-(1-methyl-2-pyrrolidinyl)ethyl]-10,11-dihydro-5H-pyrrolo[2,1-c][1,4]benzodiazepine-3-carboxamide] | – | 28
16 | Cc1cc(C(=O)N2Cc3ccc(C(=O)N4CCN(CCN(C)C)CC4)n3Cc3ccccc32)ccc1C1=CCCCC1 [Example 22, {10-[4-(1-Cyclohex-1-en-1-yl)-3-methylbenzoyl]-10,11-dihydro-5H-pyrrolo[2,1-c][1,4]benzodiazepin-3-yl}{4-[2-(dimethylamino)ethyl]-1-piperazinyl}methanone] | – | 34
17 | Cc1cc(C(=O)N2Cc3ccc(C(=O)N4CCN(CCN5CCOCC5)CC4)n3Cc3ccccc32)ccc1C1=CCCCC1 [Example 23, {10-[4-(1-Cyclohex-1-en-1-yl)-3-methylbenzoyl]-10,11-dihydro-5H-pyrrolo[2,1-c][1,4]benzodiazepin-3-yl}{4-[2-(4-morpholinyl)ethyl]-1-piperazinyl}methanone] | – | 27

same assay, conditions: value in parentheses

Row | SMILES | IC50 [nM]
18 | COc1cc(C2=CCCCC2)c(Cl)cc1C(=O)N1Cc2ccc(C(=O)N(C)CCCN(C)C)n2Cc2ccccc21 [Example 3, 10-(5-Chloro-4-cyclohex-1-en-1-yl-2-methoxybenzoyl)-N-[3-(dimethylamino)propyl]-N-methyl-10,11-dihydro-5H-pyrrolo[2,1-c][1,4]benzodiazepine-3-carboxamide citric acid salt] | 977
